Here are results for three compounds from PMC4685510, “A Cell Biologist’s Field Guide to Aurora Kinase Inhibitors” (Frontiers in Oncology, 2015).

What all share (experiment): biochemical
Holding throughout (assay type): biochemical

In test [1] the target is T1, 363 human kinases (including Aurora A/B/C) (Homo sapiens, UniProt Q9UHD2).
T1 sequence (Q9UHD2 1-729): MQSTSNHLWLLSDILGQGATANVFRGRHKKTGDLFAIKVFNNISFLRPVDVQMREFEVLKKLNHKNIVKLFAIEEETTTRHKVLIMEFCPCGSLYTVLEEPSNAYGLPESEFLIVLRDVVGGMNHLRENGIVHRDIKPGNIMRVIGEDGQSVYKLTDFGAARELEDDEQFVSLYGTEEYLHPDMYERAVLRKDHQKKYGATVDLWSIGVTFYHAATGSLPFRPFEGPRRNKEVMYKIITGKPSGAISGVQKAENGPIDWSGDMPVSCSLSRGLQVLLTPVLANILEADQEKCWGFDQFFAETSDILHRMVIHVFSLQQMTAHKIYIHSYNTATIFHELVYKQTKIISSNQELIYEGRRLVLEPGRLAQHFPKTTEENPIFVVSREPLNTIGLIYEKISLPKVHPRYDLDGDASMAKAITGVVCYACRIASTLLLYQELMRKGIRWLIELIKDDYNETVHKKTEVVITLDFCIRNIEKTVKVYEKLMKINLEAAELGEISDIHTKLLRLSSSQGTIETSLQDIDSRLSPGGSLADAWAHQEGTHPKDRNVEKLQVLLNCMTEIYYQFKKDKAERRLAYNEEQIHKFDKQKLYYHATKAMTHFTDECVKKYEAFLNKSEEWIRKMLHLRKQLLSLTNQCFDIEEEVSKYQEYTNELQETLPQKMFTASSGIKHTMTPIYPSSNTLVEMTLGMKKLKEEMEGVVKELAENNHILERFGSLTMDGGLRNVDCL
The note with it: TBK1; for remaining activity at 0.5 µM / remaining activity at 0.1 µM: read-out: % Enzyme Activity (relative to DMSO controls); for remaining activity at 0.1 µM: 100 nM.
Text: (§1) However, the Aurora A/B selectivity ratios derived from our in vitro and in vivo data can be compared to prioritize inhibitors.

In test [2] the target is 363 human kinases (including Aurora A/B/C) (Homo sapiens, UniProt Q9Y3S1). The note with it: WNK2; for remaining activity at 0.5 µM / remaining activity at 0.1 µM: read-out: % Enzyme Activity (relative to DMSO controls); for remaining activity at 0.1 µM: 100 nM.
Chain of 363 human kinases (including Aurora A/B/C) (Homo sapiens, UniProt Q9Y3S1) (Q9Y3S1 whole entry): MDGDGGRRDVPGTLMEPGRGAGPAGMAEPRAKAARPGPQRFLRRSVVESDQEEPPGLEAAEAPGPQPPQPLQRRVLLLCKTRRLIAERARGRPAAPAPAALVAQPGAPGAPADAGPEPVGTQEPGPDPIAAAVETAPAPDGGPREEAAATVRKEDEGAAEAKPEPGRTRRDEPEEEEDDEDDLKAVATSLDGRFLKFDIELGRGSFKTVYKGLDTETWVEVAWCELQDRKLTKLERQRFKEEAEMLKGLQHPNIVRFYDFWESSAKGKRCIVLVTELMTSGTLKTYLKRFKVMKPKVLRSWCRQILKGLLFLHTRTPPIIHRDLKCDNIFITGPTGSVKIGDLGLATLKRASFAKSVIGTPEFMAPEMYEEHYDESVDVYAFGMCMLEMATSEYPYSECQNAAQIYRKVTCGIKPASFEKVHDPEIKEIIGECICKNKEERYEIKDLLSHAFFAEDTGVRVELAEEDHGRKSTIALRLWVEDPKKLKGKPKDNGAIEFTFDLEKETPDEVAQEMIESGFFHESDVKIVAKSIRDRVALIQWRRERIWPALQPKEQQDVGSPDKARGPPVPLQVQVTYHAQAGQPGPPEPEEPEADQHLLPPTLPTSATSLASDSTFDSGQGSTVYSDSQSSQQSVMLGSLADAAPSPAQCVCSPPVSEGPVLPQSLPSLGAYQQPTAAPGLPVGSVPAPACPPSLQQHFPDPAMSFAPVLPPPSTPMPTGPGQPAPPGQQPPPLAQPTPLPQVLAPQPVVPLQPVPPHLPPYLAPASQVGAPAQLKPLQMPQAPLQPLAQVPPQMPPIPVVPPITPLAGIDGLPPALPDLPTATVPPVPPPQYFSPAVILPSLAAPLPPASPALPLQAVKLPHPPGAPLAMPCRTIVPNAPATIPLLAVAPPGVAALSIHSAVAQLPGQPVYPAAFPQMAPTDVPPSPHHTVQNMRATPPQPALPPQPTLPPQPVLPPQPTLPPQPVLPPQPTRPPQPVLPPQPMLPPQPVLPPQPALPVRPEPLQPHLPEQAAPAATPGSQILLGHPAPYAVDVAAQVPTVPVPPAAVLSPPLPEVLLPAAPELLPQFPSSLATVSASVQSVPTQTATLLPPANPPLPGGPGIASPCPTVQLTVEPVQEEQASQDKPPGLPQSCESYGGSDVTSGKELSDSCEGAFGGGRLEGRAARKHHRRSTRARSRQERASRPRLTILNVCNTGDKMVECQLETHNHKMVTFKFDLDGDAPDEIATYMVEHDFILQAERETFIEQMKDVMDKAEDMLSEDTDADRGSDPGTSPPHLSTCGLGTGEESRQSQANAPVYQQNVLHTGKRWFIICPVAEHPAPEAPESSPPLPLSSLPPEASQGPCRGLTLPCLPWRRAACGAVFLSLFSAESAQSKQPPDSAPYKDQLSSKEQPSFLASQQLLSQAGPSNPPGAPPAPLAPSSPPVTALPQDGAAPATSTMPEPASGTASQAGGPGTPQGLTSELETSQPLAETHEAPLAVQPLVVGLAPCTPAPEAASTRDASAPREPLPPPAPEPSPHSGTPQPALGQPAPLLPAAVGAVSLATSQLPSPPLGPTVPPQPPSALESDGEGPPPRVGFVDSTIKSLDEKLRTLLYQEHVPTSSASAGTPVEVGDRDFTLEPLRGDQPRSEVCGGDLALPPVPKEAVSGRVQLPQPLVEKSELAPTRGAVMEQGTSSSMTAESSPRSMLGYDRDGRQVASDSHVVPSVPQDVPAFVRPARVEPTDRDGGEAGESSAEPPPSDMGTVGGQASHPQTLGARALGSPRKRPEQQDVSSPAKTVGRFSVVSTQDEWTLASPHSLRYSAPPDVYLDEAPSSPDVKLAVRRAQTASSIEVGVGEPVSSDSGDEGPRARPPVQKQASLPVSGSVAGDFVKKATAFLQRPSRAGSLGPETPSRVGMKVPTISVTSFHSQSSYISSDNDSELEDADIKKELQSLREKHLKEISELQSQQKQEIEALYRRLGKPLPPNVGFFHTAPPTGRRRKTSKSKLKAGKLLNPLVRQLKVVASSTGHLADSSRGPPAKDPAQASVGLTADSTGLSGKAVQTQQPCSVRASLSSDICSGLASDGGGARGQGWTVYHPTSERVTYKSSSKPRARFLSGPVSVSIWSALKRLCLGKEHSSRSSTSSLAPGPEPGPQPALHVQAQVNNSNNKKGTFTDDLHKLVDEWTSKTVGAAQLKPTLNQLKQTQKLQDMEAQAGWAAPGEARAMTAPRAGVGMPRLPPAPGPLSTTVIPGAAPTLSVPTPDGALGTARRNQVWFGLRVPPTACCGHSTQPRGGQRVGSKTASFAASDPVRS
Text: as §1
Test [3] has as its target 363 human kinases (including Aurora A/B/C) (Homo sapiens, UniProt Q9Y6M4). The note with it: CK1g3, [ATP] 10 µM; for remaining activity at 0.5 µM / remaining activity at 0.1 µM: read-out: % Enzyme Activity (relative to DMSO controls); for remaining activity at 0.1 µM: 100 nM.
Text: as §1
Test [4] deals with T2, 363 human kinases (including Aurora A/B/C) (Homo sapiens, UniProt Q9Y2U5).
T2 sequence (Q9Y2U5 1-619): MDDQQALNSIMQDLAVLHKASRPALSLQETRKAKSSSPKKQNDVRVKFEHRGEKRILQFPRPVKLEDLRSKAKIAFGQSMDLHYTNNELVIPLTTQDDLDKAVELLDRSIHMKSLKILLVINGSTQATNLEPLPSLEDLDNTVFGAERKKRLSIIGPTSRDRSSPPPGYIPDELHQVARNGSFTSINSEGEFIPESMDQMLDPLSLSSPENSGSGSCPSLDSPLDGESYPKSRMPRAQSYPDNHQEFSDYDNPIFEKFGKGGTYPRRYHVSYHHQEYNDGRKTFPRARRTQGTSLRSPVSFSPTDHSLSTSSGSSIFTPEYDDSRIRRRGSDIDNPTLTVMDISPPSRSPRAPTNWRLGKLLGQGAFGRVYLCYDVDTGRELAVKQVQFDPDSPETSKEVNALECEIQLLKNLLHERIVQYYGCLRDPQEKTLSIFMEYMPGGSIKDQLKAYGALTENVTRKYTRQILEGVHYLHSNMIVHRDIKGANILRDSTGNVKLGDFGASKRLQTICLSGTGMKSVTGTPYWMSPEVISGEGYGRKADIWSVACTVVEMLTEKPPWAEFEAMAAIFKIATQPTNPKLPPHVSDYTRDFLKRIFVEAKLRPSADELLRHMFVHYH
The note with it: MEKK2; for remaining activity at 0.5 µM / remaining activity at 0.1 µM: read-out: % Enzyme Activity (relative to DMSO controls); for remaining activity at 0.1 µM: 100 nM.
Text: as §1

Test [5] has as its target T3, 363 human kinases (including Aurora A/B/C) (Homo sapiens, UniProt Q9H2K8).
T3 sequence (Q9H2K8 1-898): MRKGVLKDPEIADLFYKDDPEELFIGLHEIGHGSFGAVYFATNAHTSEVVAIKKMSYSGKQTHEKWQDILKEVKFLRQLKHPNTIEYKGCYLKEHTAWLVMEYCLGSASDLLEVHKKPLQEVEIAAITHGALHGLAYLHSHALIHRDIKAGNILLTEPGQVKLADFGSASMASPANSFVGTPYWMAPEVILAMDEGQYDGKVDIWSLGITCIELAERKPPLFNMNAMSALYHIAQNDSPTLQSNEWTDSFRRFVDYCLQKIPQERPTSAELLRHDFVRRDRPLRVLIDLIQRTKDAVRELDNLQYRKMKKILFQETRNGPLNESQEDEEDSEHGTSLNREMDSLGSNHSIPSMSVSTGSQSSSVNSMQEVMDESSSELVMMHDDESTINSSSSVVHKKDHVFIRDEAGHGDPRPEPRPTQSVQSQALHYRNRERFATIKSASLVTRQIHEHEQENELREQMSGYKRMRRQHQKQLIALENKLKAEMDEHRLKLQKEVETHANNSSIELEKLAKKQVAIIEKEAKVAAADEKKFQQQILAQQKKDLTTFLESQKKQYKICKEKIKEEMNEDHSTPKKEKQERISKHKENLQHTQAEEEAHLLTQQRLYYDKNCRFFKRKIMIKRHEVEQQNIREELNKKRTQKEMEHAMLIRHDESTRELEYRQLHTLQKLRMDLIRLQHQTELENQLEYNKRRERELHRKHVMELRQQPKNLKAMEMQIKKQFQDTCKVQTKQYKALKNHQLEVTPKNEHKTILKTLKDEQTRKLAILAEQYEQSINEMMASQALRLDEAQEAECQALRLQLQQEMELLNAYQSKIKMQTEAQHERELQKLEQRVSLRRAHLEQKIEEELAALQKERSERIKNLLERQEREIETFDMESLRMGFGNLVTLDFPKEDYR
The note with it: TAOK3/JIK; for remaining activity at 0.5 µM / remaining activity at 0.1 µM: read-out: % Enzyme Activity (relative to DMSO controls); for remaining activity at 0.1 µM: 100 nM.
Text: as §1

Chain of 363 human kinases (including Aurora A/B/C) (Homo sapiens, UniProt Q9Y6M4) (Q9Y6M4 whole entry): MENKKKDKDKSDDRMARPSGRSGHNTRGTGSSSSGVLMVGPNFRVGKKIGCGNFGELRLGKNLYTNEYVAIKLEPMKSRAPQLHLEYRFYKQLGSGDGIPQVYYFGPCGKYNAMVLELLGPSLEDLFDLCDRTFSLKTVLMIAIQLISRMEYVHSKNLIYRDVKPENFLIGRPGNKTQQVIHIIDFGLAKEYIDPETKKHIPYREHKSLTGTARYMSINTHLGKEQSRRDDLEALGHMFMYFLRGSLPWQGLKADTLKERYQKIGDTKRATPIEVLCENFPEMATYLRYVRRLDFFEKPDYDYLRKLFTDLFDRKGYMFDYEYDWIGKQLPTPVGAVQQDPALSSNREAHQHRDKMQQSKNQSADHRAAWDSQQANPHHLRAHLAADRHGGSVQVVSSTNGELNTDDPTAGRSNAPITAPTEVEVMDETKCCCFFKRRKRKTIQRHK

As for `O=C(c1cccc(Cl)c1F)N1CCN(Cc2cccc(Nc3nccs3)n2)CC1` [MK-8745], the “% Enzyme Activity (relative to DMSO controls)” value is 102.60% in test [1] (500 nM); 101.71% in test [2] (500 nM); 98.01% in test [3] (500 nM); 96.27% in test [4] (500 nM); 93.76% in test [5] (500 nM). In addition, the remaining activity at 0.5 µM in test [1] (500 nM) turned out to be 105%; in test [2] (500 nM), 102%; in test [3] (500 nM), 98.6%; in test [4] (500 nM), 97.5%; in test [5] (500 nM), 95.2%.

On to `CCn1cc(-c2ccnc3[nH]c(-c4cccc(CN(C)C)c4)cc23)c(-c2ccc(NC(=O)N(C)C)cc2)n1` [GSK1070916], for which the remaining activity at 0.1 µM was determined as 93.7% in test [1]; 92.3% in test [2]; 95% in test [3]; 81.7% in test [4]; 174% in test [5].

Regarding `O=C(O)[C@]1(Cc2cccc(Nc3nccs3)n2)CC[C@@H](Oc2cccc(Cl)c2F)CC1` [MK-5108], the remaining activity at 0.1 µM in test [1] turned out to be 108%; in test [2], 83%; in test [3] it was 100%; in test [4], 102%; in test [5] it was 80.2%. In addition, the remaining activity at 0.5 µM in test [1] (500 nM) came to 88.6%; in test [2] (500 nM), 33.8%; in test [3] (500 nM) it was 94.6%; in test [4] (500 nM), 83.9%; in test [5] (500 nM) it was 110%.
